Results published in ChEMBL document CHEMBL3612065, “Development of N-hydroxybenzamide derivatives with indole-containing cap group as histone deacetylases inhibitors” (Bioorg Med Chem, 2015).

Tests used:
[1] = Inhibition of Class 1 histone deacetylase isolated from human HeLa cell nuclear extracts using Boc-Lys (acetyl)-AMC as substrate preincubated for 10 mins followed by substrate addition measured after 30 mins by fluorescence assay; format: cell-based
[2] = Cytotoxicity against human U266 cells assessed as growth inhibition after 48 hrs by MTT assay; format: functional, cell-based; conditions: U-266, 48 h
HEL = assay: Cytotoxicity against human HEL cells assessed as growth inhibition after 48 hrs by MTT assay; format: functional, cell-based
HCT-116 = assay: Cytotoxicity against human HCT116 cells assessed as growth inhibition after 48 hrs by MTT assay; format: functional, cell-based; conditions: HCT-116, 48 h
PC-3 [3] = assay: Cytotoxicity against human PC3 cells assessed as growth inhibition after 48 hrs by MTT assay; format: functional, cell-based; conditions: PC-3, 48 h
PC-3 [4] = assay: Selectivity ratio of IC50 for Class 2a histone deacetylase in human PC3 to IC50 for Class 1 histone deacetylase in human PC3 cells; format: cell-based
HeLa [5] = assay: Ratio of IC50 for Class 1 histone deacetylase in human PC3 cells to IC50 for Class 1 histone deacetylase isolated from human HeLa cell nuclear extracts
PC-3 [6] = assay: Inhibition of Class 2a histone deacetylase in human PC3 cells using Boc-Lys (triflouroacetyl)-AMC as substrate preincubated for 3 hrs followed by substrate addition measured after 3 hrs by fluorescence assay; format: cell-based
K562 = assay: Cytotoxicity against human K562 cells assessed as growth inhibition after 48 hrs by MTT assay; format: functional, cell-based; conditions: K562, 48 h
PC-3 [7] = assay: Inhibition of Class 1 histone deacetylase in human PC3 cells using Boc-Lys (acetyl)-AMC as substrate preincubated for 3 hrs followed by substrate addition measured after 3 hrs by fluorescence assay; format: cell-based
U-937 = assay: Cytotoxicity against human U937 cells assessed as growth inhibition after 48 hrs by MTT assay; format: functional, cell-based; conditions: U-937, 48 h
HeLa [8] = assay: Potency index, ratio of SAHA IC50 to compound IC50 for Class 1 histone deacetylase isolated from human HeLa cell nuclear extracts; format: cell-based

**Q.** Which IC50 [1] does the source give for `O=C(NO)c1ccc(NC(=O)[C@H](Cc2c[nH]c3ccccc23)NC(=O)c2ccc(F)cc2)cc1` here?
**A.** Its IC50 is 2.4 nM.

**Q.** With `Cc1ccc(S(=O)(=O)N[C@@H](Cc2c[nH]c3ccccc23)C(=O)Nc2ccc(C(=O)NO)cc2)cc1` as the compound, how does the IC50 [1] read?
**A.** Its IC50 is 196 nM.

**Q.** For `COc1cc(CCC(=O)Nc2ccc(C(=O)NO)cc2)ccc1OCc1cccs1`, which IC50 [1] is on record?
**A.** The IC50 was 192 nM.

**Q.** Which IC50 [1] does the source give for `O=C(NO)c1ccc(NC(=O)[C@H](Cc2c[nH]c3ccccc23)NC(=O)c2ccc(Cl)cc2Cl)cc1` here?
**A.** Its IC50 is 23.3 nM.

**Q.** With `CCC(CC)C(=O)N[C@@H](Cc1c[nH]c2ccccc12)C(=O)Nc1ccc(C(=O)NO)cc1` as the compound, how does the IC50 [1] read?
**A.** The IC50 was 333 nM.

**Q.** Which IC50 [1] does the source give for `O=C(NO)c1ccc(NC(=O)[C@H](Cc2c[nH]c3ccccc23)NC(=O)c2ccncc2)cc1` here?
**A.** The IC50 was 100 nM.

**Q.** With `CC(C)(C)OC(=O)N[C@H](C(=O)Nc1ccc(C(=O)NO)cc1)c1ccccc1` as the compound, how does the IC50 [1] read?
**A.** Its IC50 is 123 nM.

**Q.** Which IC50 [1] does the source give for `O=C(NO)c1ccc(NC(=O)[C@H](Cc2c[nH]c3ccccc23)NC(=O)c2cc(Cl)cc(Cl)c2)cc1` here?
**A.** The IC50 was 41.2 nM.

**Q.** For `O=C(NO)c1ccc(NC(=O)[C@H](Cc2c[nH]c3ccccc23)NC(=O)c2ccc(C(F)(F)F)cc2)cc1`, which IC50 [1] is on record?
**A.** The IC50 was 30 nM.

**Q.** Which IC50 [1] does the source give for `Cc1ccc(C(=O)N[C@@H](Cc2c[nH]c3ccccc23)C(=O)Nc2ccc(C(=O)NO)cc2)cc1` here?
**A.** Its IC50 is 13 nM.

**Q.** For `O=C(/C=C/c1ccc(OC[C@H](Cc2c[nH]c3ccccc23)NC(=O)c2ccc(Cl)cc2)cc1)NO`, which IC50 [1] is on record?
**A.** Its IC50 is 6.8 nM.

**Q.** With `O=C(NO)c1ccc(NC(=O)[C@H](Cc2c[nH]c3ccccc23)NS(=O)(=O)c2ccccc2)cc1` as the compound, how does the IC50 [1] read?
**A.** The IC50 was 178 nM.

**Q.** Which IC50 [1] does the source give for `CC(C)=CC(=O)N[C@@H](Cc1c[nH]c2ccccc12)C(=O)Nc1ccc(C(=O)NO)cc1` here?
**A.** Its IC50 is 139 nM.

**Q.** Which IC50 [1] does the source give for `COc1ccc(C(=O)N[C@@H](Cc2c[nH]c3ccccc23)C(=O)Nc2ccc(C(=O)NO)cc2)cc1` here?
**A.** Its IC50 is 8.6 nM.

**Q.** For `O=C(NO)c1ccc(NC(=O)[C@H](Cc2c[nH]c3ccccc23)NC(=O)c2ccco2)cc1`, which IC50 [2] is on record?
**A.** The IC50 was 3760 nM.

**Q.** And the IC50 (HEL)?
**A.** The IC50 was 3360 nM.

**Q.** What about the IC50 (HCT-116) of the same compound?
**A.** The IC50 was 2770 nM.

**Q.** What about the IC50 (PC-3 [3]) of the same compound?
**A.** Its IC50 is 3340 nM.

**Q.** What about the Ratio IC50 (PC-3 [4]) of the same compound?
**A.** The Ratio IC50 was 2.

**Q.** And the IC50 [1]?
**A.** The IC50 was 31 nM.

**Q.** What about the “Ratio IC50” value (HeLa [5]) of the same compound?
**A.** The value was 11.

**Q.** What about the IC50 (PC-3 [6]) of the same compound?
**A.** The IC50 was 665 nM.

**Q.** What about the IC50 (K562) of the same compound?
**A.** Its IC50 is 4560 nM.

**Q.** And the IC50 (PC-3 [7])?
**A.** Its IC50 is 333 nM.

**Q.** What about the IC50 (U-937) of the same compound?
**A.** The IC50 was 3430 nM.

**Q.** With `O=C(Cc1ccccc1)N[C@@H](Cc1c[nH]c2ccccc12)C(=O)Nc1ccc(C(=O)NO)cc1` as the compound, how does the IC50 [1] read?
**A.** Its IC50 is 47.5 nM.

**Q.** Which IC50 [1] does the source give for `O=C(NO)c1ccc(NC(=O)[C@H](Cc2c[nH]c3ccccc23)NC(=O)c2ccccc2)cc1` here?
**A.** Its IC50 is 23.8 nM.

**Q.** Which IC50 [1] does the source give for `CN(C)c1ccc(C(=O)N[C@@H](Cc2c[nH]c3ccccc23)C(=O)Nc2ccc(C(=O)NO)cc2)cc1` here?
**A.** Its IC50 is 4.7 nM.

**Q.** What does the source list for `O=C(NO)c1ccc(NC(=O)[C@H](Cc2c[nH]c3ccccc23)NC(=O)c2ccc(Cl)cc2)cc1`?
**A.** IC50 [2]: 1010 nM; IC50 (HEL): 1970 nM; IC50 (HCT-116): 1450 nM; IC50 (PC-3 [3]): 740 nM; Ratio IC50 (PC-3 [4]): 2; IC50 [1]: 1.5 nM; Ratio IC50 (HeLa [5]): 22; IC50 (PC-3 [6]): 60.1 nM; Ratio IC50 (HeLa [8]): 100; IC50 (K562): 1670 nM; IC50 (PC-3 [7]): 33.2 nM; IC50 (U-937): 1090 nM

**Q.** For `CCCC(CCC)C(=O)N[C@@H](Cc1c[nH]c2ccccc12)C(=O)Nc1ccc(C(=O)NO)cc1`, which IC50 [1] is on record?
**A.** The IC50 was 212 nM.

**Q.** For `O=C(CCc1ccccc1)N[C@@H](Cc1c[nH]c2ccccc12)C(=O)Nc1ccc(C(=O)NO)cc1`, which IC50 [1] is on record?
**A.** Its IC50 is 59.7 nM.

**Q.** Which IC50 [1] does the source give for `O=C(NO)c1ccc(NC(=O)[C@H](Cc2c[nH]c3ccccc23)NC(=O)c2ccc3ccccc3c2)cc1` here?
**A.** The IC50 was 27 nM.

**Q.** With `O=C(NO)c1ccc(NC(=O)[C@H](Cc2c[nH]c3ccccc23)NC(=O)c2cccc(Cl)c2)cc1` as the compound, how does the IC50 [1] read?
**A.** The IC50 was 43.1 nM.

**Q.** Which IC50 [1] does the source give for `O=C(NO)c1ccc(NC(=O)[C@H](Cc2c[nH]c3ccccc23)NC(=O)c2ccccc2Cl)cc1` here?
**A.** The IC50 was 157 nM.

**Q.** With `O=C(NO)c1ccc(NC(=O)[C@H](Cc2c[nH]c3ccccc23)NC(=O)c2ccc(Br)cc2)cc1` as the compound, how does the IC50 [1] read?
**A.** The IC50 was 3.7 nM.

**Q.** For `O=C(CCCc1ccccc1)N[C@@H](Cc1c[nH]c2ccccc12)C(=O)Nc1ccc(C(=O)NO)cc1`, which IC50 [1] is on record?
**A.** The IC50 was 98.7 nM.

**Q.** For `CC(=O)N[C@@H](Cc1c[nH]c2ccccc12)C(=O)Nc1ccc(C(=O)NO)cc1`, which IC50 [1] is on record?
**A.** The IC50 was 425 nM.

**Q.** With `CC(C)(C)OC(=O)N[C@@H](Cc1c[nH]c2ccccc12)C(=O)Nc1ccc(C(=O)NO)cc1` as the compound, how does the IC50 [1] read?
**A.** The IC50 was 280 nM.

**Q.** With `CCS(=O)(=O)N[C@@H](Cc1c[nH]c2ccccc12)C(=O)Nc1ccc(C(=O)NO)cc1` as the compound, how does the IC50 [1] read?
**A.** Its IC50 is 1090 nM.

**Q.** Which IC50 [1] does the source give for `CC(C)C(=O)N[C@@H](Cc1c[nH]c2ccccc12)C(=O)Nc1ccc(C(=O)NO)cc1` here?
**A.** Its IC50 is 526 nM.
